Among the data in ChEMBL document CHEMBL1133794, “3-p-Toluoyl-2-[4'-(3-diethylaminopropoxy)-phenyl]-benzofuran and 2-[4'-(3-diethylaminopropoxy)-phenyl]-benzofuran do not act as surfactants or micelles when inhibiting the aggregation of beta-amyloid peptide” (Bioorg Med Chem Lett, 2001) are Critical micelle concentration and IC50 values, retold here.

The nature of assay [1]: Critical micelle concentration determined by micellar/surfactant based mechanism. Format: functional.
Assay [2] in a line: Inhibitory concentration required to inhibit aggregation of 50 uM beta-amyloid 1-40 peptide by 50% over 24 hr r incubation, 37 degree C. Format: functional.

Take `CCN(CC)CCCOc1ccc(-c2oc3ccccc3c2C(=O)c2ccc(C)cc2)cc1`: the Critical micelle concentration in assay [1] is 225 µM. In assay [2], this compound returned an IC50 of 20 µM.

As to `CCN(CC)CCCOc1ccc(-c2cc3ccccc3o2)cc1`, in assay [1], the Critical micelle concentration stood at 220 µM. The same compound returned a concentration for half-maximal inhibition (IC50) in assay [2] of 78 µM.

As usually defined, the IC50 is the concentration that gives 50% inhibition.
